Measured values published in PubChem BioAssay AID179 (DTP/NCI, 2004).
pEC50, pIC50: −log10 of the molar value. Activity calls are given as the source filed them.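 How the source made its calls: active means compounds giving half or more protection of infected cells from virus-caused growth loss, again on retest; inactive means the rest.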

System: CEM cells HIV-1 protection, formazan growth assay
Experiment: NCI AIDS Antiviral Assay
Details: for pIC50: measured here: growth of uninfected CEM cells
In short: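 Steps: treat uninfected and HIV-1-infected human CEM cells at five drug levels; quantify growth by soluble formazan; retest any compound reaching 50% protection; classify actives from the retest.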

Compound	pEC50	pIC50	outcome
Cn1c(=O)oc2cc(C(=O)CN3CCN(Cc4ccc5c(c4)OCO5)CC3)c(Cl)cc21	< 3.70	3.75	
O=C(O)CSc1cc2c3ccccc3sc2c2ccccc12	< 5.21	< 5.21	
COc1ccc2nc3c([N+](=O)[O-])ccc(NCCN(C)C)c3c(NCCN(C)C)c2c1	< 3.70	5.97	
CN1C(=O)C(C)(C)C(=O)c2ccccc21	< 3.70	< 3.70	
COc1cc2c(cc1O)[C@@H]1Cc3c(cc(OC)c(OC)c3Oc3cc4c(cc3OC)CCN(C)[C@@H]4Cc3ccc(O)cc3)[C@H](C2)N1C	< 3.70	4.81	
COc1ccc2c(O)c(S(=O)(=O)c3ccc(C)cc3)c(=O)oc2c1OC	< 4.00	< 4.00	
[Cl][Pd][Cl].[NH-]CCN1CC1	< 3.70	4.91	
CCCCCCCC1c2cc3[nH]c(cc4nc(cc5[nH]c(cc(n2)[C@@]1(C)CC(=O)N(C)C)c(C)c5CCC(=O)O)C(CCC(=O)O)=C4C)cc3C (some centres undefined)	< 3.70	5.12	
COc1csc([C@H]2CCC3[C@@H]4CC=C5C[C@@H](OC(C)=O)CC[C@]5(C)C4CC[C@@]32C)n1 (some centres undefined)	< 4.24	< 4.24	
Cc1ccc([N+](=O)[O-])cc1NC(=O)N1CCCCC1C (centres undefined)	< 3.70	< 4.00	
CC1(C)N=C(N)N=C(N)N1c1cccc(N)c1.[Sn]			inactive
COC1=CC(=O)c2c(cc3c(c2O)-c2c(OC)cc4cc5c(c(O)c4c2OC(=O)CC(C)(O)C3)C(=O)CC(C)(O)C5)C1=O (centres undefined)	< 4.00	5.27	
Cn1c2ccccc2n2c(=O)c3c(c(C#N)c12)CCCC3	< 5.14	< 5.14	
C=CCOc1cc(NC(=S)c2ccoc2C)ccc1OC	6.85	3.93	
O=P(c1ccccc1)(c1ccccc1)C(NCc1ccccc1)c1ccc(F)cc1 (centres undefined)	< 3.70	4.89	
O=C(Nc1ccc([N+](=O)[O-])cn1)Nc1ccccc1F	< 3.70	< 3.70	
Cc1cccc2c1Oc1ccccc1C2NC(=O)CN(C)C (centres undefined)	< 3.36	4.08	
Cc1ncc([N+](=O)[O-])n1CCNCCCn1ccnc1[N+](=O)[O-]	< 3.70	< 3.70	
S=C1SSC(=S)SS1	< 4.48	< 4.48	
COc1cc(N(CCC#N)CCC#N)ccc1/C(N=Nc1ccccc1)=N/NC(=O)c1cc(Br)ccc1O	< 4.00	4.75	
CC1C(c2ccccc2O)c2cc3c(cc2OC1N1CCOCC1)OCO3 (centres undefined)	< 3.70	4.37	
Oc1ccc2c(c1)-c1c(c3ccccc3n1CCN1CCOCC1)CC2	< 3.70	4.49	
COC1/C=C/OC2(C)Oc3c(C)c(O)c4c(O)c(c(/C=N/OC/C=C(\C)CCC=C(C)C)c(O)c4c3C2=O)NC(=O)C(C)=C/C=C/C(C)C(O)C(C)C(O)C(C)C(OC(C)=O)C1C (centres undefined)	< 3.70	5.35	

Compound	pEC50	pIC50	outcome
CCCC1N2CCCCC2[C@@H]2c3[nH]c4ccccc4c3CCN12 (some centres undefined)	< 3.37	< 3.37	
CC(O)C[P+](c1ccccc1)(c1ccccc1)c1ccccc1 (centres undefined)	< 3.70	4.80	
CCC(=O)n1c(=O)n(-c2ccc([N+](=O)[O-])cc2)c(=O)n1C(=O)CC	< 3.70	< 3.70	
O=S1(=O)C(c2ccc(F)cc2)=C(O)c2cc3ccccc3nc21			inactive
CC(=O)N1C(Nc2cccc3nc(C)ccc23)CCN1c1ccccc1 (centres undefined)	< 3.70	4.83	
C=CC(C)(O)CNc1ccccc1 (centres undefined)	< 3.69	< 3.69	
COc1cc2cccc(N)c2cc1OC	< 3.70	< 3.70	
CCOC(=O)c1ccc(-c2cc(C)no2)[nH]1	< 3.70	4.44	
Cn1c(=O)nc2n(-c3ccc(Cl)c(C(F)(F)F)c3)c3ccccc3nc-2c1=O			inactive
CCOC(=O)C(C#N)(Cc1ccc2ccccc2n1)Cc1ccc2ccccc2n1	< 3.70	< 3.70	
CC1(C)COC(c2cccc(C(O)c3ccc(Cl)cc3)c2)=N1 (centres undefined)	< 3.70	4.41	
CC1=Nc2ccccc2NC2(C1)C(C1COC(C)(C)O1)OC1OC(C)(C)OC12 (centres undefined)			inactive
O=C(Nc1cccc2nsnc12)c1ccc(C(=O)Nc2cccc3nsnc23)cc1	< 4.64	< 4.64	
Cc1cccc(Nc2nc3ccccc3nc2NS(=O)(=O)c2ccc(N)cc2)c1	< 3.70	3.95	
N#C/C(C(=O)NCc1ccccc1)=C(/N)N1CCCC1	< 3.70	< 3.70	
O=c1sc2ccccc2c2c1C=CCO2	< 4.33	< 4.33	
CC12CCC(C1)C(O)(c1ccccc1)C2(O)c1ccccc1 (centres undefined)	< 4.22	4.35	
COc1cc2c(cc1O)C1CC(CC3CCCCN31)OC(=O)/C=C\c1ccc(O)c-2c1 (centres undefined)	< 3.70	4.34	
N#CCC(=O)N/N=C\c1ccc2c(c1)OCO2	< 3.70	< 3.70	
C=C1CC[N+]2(C)CCCC12 (centres undefined)	< 2.94	< 2.94	
O=C(/C=C/c1ccccc1O)c1ccccc1Cl	< 4.41	< 4.41	
COc1cc(OC)c2c(=O)c(OC)c(-c3ccc4c(c3)OCO4)oc2c1OC	< 3.70	< 3.70	
COC(=O)/C(C#N)=C/Sc1ccccc1			inactive

Compound	pEC50	pIC50	outcome
O=C(Nc1ccc(Cl)c(Cl)c1)NN1CCCCCC1			inactive
O=C(O)CC1OCC=C2CN3CCC45C6=CC(=O)C(=O)C([N+](=O)[O-])=C6NC4C1C2CC35 (centres undefined)	< 3.70	4.55	
COc1cc(OC)c(OC)cc1/C=C1\C=Cc2ccccc21	< 4.75	< 4.75	
CCCCCCCCN1CCCN(/N=C/c2c3c(O)c4c(O)c(C)c5c(c4c2O)C(=O)C(C)(O/C=C/C(OC)C(C)C(OC(C)=O)C(C)C(O)C(C)C(O)C(C)/C=C/C=C(C)C(=O)N3)O5)CC1 (centres undefined)	< 3.70	5.14	
c1ccc(CCN(CCc2ccccn2)CCc2ccccn2)cc1			inactive
CC(=O)c1cn(-c2ccc(Cl)cc2)c(=O)c2c(N)n[nH]c12	3.78	< 3.70	
CCOC(=O)C(=O)c1c2cn(O)nc(OC)c-2nc1[N+](=O)[O-]	< 3.09	3.27	
O=S1(=O)c2ccccc2N(c2ccccc2)C2=NCCN21	< 3.92	< 3.92	
CC(C)C(=O)Nc1nc2nc[nH]c2c(=O)[nH]1	< 4.07	< 4.07	
O=C1/C(=C\c2cccc(Oc3ccccc3)c2)S(=O)(=O)C(c2ccccc2)N1Cc1ccccc1 (centres undefined)	< 4.70	< 4.70	
CN(c1ccccc1Cl)S(=O)(=O)c1ccc([N+](=O)[O-])cc1	< 3.70	< 3.70	
CC(=O)OCCn1cnc2c(NCC=C(C)C)ncnc21	< 3.70	< 3.70	
Cc1ccc(NC(=S)Nc2ccccc2C)nc1	< 3.70	6.11	
Cn1cc(NC(=O)c2cc(NC(=O)CCCCCCCCC(=O)Nc3cc(C(=O)Nc4cc(C(=O)NCCC(N)N)n(C)c4)n(C)c3)cn2C)cc1C(=O)NCCC(=N)N	< 4.54	4.90	
O=C1CSC(c2ccccc2)C1C(=O)c1ccc(NCc2nc3ccccc3[nH]2)cc1 (centres undefined)	< 3.70	5.06	
O=C1/C(=C(/Br)I)c2ccccc2-c2ccccc21	< 3.70	5.08	
Cc1nc(N)c(N2CCN(C#N)CC2)c(=O)[nH]1	< 3.70	< 3.70	
Cc1cc(S(=O)(=O)Nc2n[nH]c(=O)n2-c2ccccc2)c(S)cc1Cl	3.81	< 3.70	
Cc1cc(N=Nc2c(N)c(C)cc(N=Nc3ccc(C(N)=O)cc3)c2N)ccc1N=Nc1cc(C(=O)O)c(O)c(S(=O)(=O)O)c1	5.05	< 3.70	
Cc1ccnc(NS(=O)(=O)c2ccc(NC(=O)c3ccccc3SC(=O)CCCC[n+]3ccccc3)cc2)n1	4.82	3.99	
CCCCCCCCCCNCCSSCCNC(C)=O	< 3.70	5.27	
CC(=O)c1cccc(NCn2nnc3ccccc32)c1	< 3.70	4.02	
